# Source: US9670139B2, “Telomerase activating compounds and methods of use thereof” (BEN-GURION UNIVERSITY OF THE NEGEV RESEARCH AND DEVELOPMENT …, priority 2007, dated 2017)
# Numbered stars: 1 amine (or outer) side, 2 acyl side, 3 side chain; on linkers, the order of the positions; unused ones are H or OH. Bridge positions count the residues as written; N and C are the ends. Square brackets hold non-standard residues; d marks the D form. Peptide text beside a SMILES is read from it. I, II: the chains in the order shown. Actinocin(9to1) = Cc1c2oc3c(C)ccc(C(=O)[*:1])c3nc-2c(C(=O)[*:2])c(N)c1=O; NMeV = CN[C@H](C(=O)O)C(C)C; Sar = CNCC(=O)O
# What was measured:
# C. elegans = test: Lifespan extension of nematodes (C. elegans); type: in vivo; details: for Lifes pan ext. %: nematodes grown with compound at 50 micromolar; for Lifes pan ext. % / Lifespan %: mean lifespan versus control; for Lifespan % / Lifespan extension (%): 50 micromolar; for Lifespan extension (%): Table 2, versus untreated controls
# Procedure: Nematodes (C. elegans) were administered tri-phenyl telomerase-activating compounds presented in the following tables, and telomerase activity and/or expression was measured in terms of nematode lifespan extension. Nematodes were grown with the activators at 50 micromolar concentration, and the mean, maximum and half-life for Compound 68 and Compound 77, two representative molecules, was measured versus that of the control (FIG. 8). Values represent mean lifespan.
# Survival of the C. elegans, a nematode that normally survives for 12-14 days, represents an acceptable model for studying life extension. Nematodes were administered tri-phenyl telomerase-activating compounds and their effect on the nematode lifespan extension was determined. Nematodes were grown with the activators at a concentration of 50 micromolar, and mean, maximum and half-life were measured in comparison with untreated controls. Lifespan increased by 13-43% (Table 2), and the median lifespan increased approximately 2-fold (from 12 days to 22 days, as shown in FIG. 8).
# embryos = test: Prevention of camptothecin damage to embryo development in rats; type: in vivo, rat; details: embryos at days 14-15
# Procedure: The ability of compounds of the present invention to prevent the damaging effects of drugs on embryonic development was examined in rats. Female rats were treated with camptothecin (CPT) (5 mg/kg), an anti-cancer drug, and then injected with Compound 68 (6 mg/kg) or vehicle (0.1%). Embryos were removed at days 14-15 of pregnancy and examined for damage.
# telomerase mRNA = test: Northern blot of telomerase mRNA with hTERT probe; type: cell-based, human
# Procedure: Experiments were also performed to determine the effect of compounds of the present invention on the telomerase mRNA level (including the full and spliced variant telo-mRNAs). Cells were treated with a single dose of […] Compound 68 for various intervals (1-24 h). Total RNA extracts were prepared, and equal RNA concentrations were analyzed by northern blotting with a specific hTERT probe. […] The increased expression of telomerase was specific since no effect on GAPDH mRNA was observed (lower panel).
# [1] = Solubility noted at synthesis; type: physicochemical
# telomerase [2] = biological target: telomerase (Homo sapiens, UniProt O14746); test: Telomerase activity in RPE cells (quantitative telomerase detection kit, real time PCR); type: cell-based; parameters: endogenous in cells; host or cells: human retinal pigmented epithelial (RPE) cells; details: FIG. 7B
# Chain of telomerase (Homo sapiens, UniProt O14746) (O14746 whole entry): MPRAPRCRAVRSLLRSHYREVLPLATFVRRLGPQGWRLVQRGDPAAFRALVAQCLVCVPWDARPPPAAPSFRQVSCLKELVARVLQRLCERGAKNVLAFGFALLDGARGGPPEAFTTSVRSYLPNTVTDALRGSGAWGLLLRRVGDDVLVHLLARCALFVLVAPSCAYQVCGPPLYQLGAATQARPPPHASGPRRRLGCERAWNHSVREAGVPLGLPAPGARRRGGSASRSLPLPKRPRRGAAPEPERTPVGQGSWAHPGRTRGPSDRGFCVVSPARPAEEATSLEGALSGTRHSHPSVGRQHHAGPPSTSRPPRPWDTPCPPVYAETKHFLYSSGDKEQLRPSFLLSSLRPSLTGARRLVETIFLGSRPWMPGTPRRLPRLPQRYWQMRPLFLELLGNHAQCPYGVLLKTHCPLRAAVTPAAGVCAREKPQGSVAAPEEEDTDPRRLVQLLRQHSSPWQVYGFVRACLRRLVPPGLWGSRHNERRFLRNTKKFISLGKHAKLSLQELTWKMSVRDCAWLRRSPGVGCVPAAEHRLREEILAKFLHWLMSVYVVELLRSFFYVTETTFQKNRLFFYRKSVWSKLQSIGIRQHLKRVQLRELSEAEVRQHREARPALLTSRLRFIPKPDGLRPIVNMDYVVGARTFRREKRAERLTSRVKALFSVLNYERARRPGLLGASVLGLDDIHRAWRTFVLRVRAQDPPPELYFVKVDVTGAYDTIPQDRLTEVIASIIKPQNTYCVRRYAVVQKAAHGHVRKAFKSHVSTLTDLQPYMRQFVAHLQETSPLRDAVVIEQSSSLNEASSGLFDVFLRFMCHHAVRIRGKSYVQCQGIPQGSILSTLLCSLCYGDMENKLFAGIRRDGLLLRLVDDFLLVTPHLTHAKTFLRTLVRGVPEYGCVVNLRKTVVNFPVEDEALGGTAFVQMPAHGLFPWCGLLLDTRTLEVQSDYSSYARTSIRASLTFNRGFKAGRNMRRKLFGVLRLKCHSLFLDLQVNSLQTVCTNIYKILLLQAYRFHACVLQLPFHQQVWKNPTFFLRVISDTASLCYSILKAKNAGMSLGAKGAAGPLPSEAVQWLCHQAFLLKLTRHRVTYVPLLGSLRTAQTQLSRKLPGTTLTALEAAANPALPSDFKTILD
# Source text: FIG. 7: A. The effect of compounds of the present invention on human retinal pigmented epithelial cells under oxidative stress. B. The effect of compounds on telomerase activity in RPE cells (measured by a quantitative telomerase detection kit-real time PCR).
# Chronic exposure of human retinal pigmented epithelial (RPE) cells to oxidative stress predisposes them to the development of age-related macular degeneration (AMD). Human RPE cells were exposed to oxidative stress by treatment with H2O2 (1 mM) for 24 hours, and H2O2 (0.5 mM) for another 24 hours. The cells were then treated daily for two days with the indicated compounds in the absence of H2O2. Increased cell growth was observed as a consequence of treatment with the compounds (FIG. 7A). Telomerase activity was enhanced in RPE cells treated with compounds 68 and 79 by 30- and 50-fold, respectively (FIG. 7B).
# telomerase protein = test: Western blot of telomerase protein level in treated glioblastoma cells; type: cell-based, human; details: 1 μM single dose
# Procedure: The effect of compounds of the present invention on the level of telomerase protein and of long-term treatment of a single dose of Compound 68 on telomerase was tested by exposing cells for various intervals (3-24 h) to 1 μM of the compound and detecting telomerase protein level by western blot analysis with anti-telomerase antibody. […] A time-dependent increase in telomerase was observed, with activation peaking at […] of treatment, and then gradually decreasing.
# telomerase [3] = test: Activation of telomerase expression in rat endometrial cells after subcutaneous injection; type: in vivo; details: 6 mg/kg subcutaneously, 24 h
# Procedure: Female rats in diestrus (the stage at which the epithelial layer in the rat endometrium undergoes degradation) were injected subcutaneously with 6 mg/kg of Compound 68, or with a vehicle. The rats were sacrificed 24 h later and endometrial sections were prepared from the uterine horns of treated and untreated rats and analyzed by histological procedures and by immunohistochemical staining Endometrial slices were stained by hematoxylin-eosin. […] In addition, morphologically, the endometrial tissue resembled the structure of the proliferating stages (proestrus and estrus) (FIG. 9A,B). Activation of telomerase expression in the endometrial cells of treated rats was examined by immunohistochemistry with anti-telomerase antibody (FIG. 9C-F). […] In addition, telomerase activity was measured in nuclear extracts derived from the endometrium of the various treatment groups. […] In some embodiments of the invention, the data support a role for the treatment of endometriosis with the compounds of this invention.
smiles,measurement,setting,value
Cc1ccc(C(C)(c2ccc(C)cc2)c2ccc(C)cc2)cc1 [Compound 22],Lifes pan ext. %,C. elegans,21%
COc1ccc(C(C)(c2ccc(OC)cc2)c2ccc(OC)cc2)cc1 [Compound 5],Lifes pan ext. %,C. elegans,12%
"CC[C@@]1(O)C(=O)OCc2c1cc1n(c2=O)Cc2cc3ccccc3nc2-1 [CPT, camptothecin, reference compound]",embryo development after CPT only,embryos; CPT 5 mg/kg plus vehicle,evidence of abnormal development
CC(c1ccc(O)c(Br)c1)(c1ccc(O)c(Br)c1)c1ccc(O)c(Br)c1 [Compound 69],Lifespan %,C. elegans; table of scaffold drawing 36,−5%
CCOC(=O)COc1ccc(C(C)(c2ccc(OCC(=O)OCC)cc2)c2ccc(OCC(=O)OCC)cc2)cc1 [Compound 42],Lifes pan ext. %,C. elegans,−7%
Cc1ccc(P(c2ccc(C)cc2)c2ccc(C)cc2)cc1 [Compound 65],Lifespan %,C. elegans; table of scaffold drawing 35,42%
CC(c1ccccc1)(c1ccccc1)c1ccccc1 [Compound 49],Lifes pan ext. %,C. elegans,16%
CC(c1ccccc1)(c1ccc(-c2cccc3ccccc23)cc1)c1ccc(C2c3ccccc3Oc3ccccc32)cc1 (centres unmarked) [Compound 33],Lifes pan ext. %,C. elegans,−26%
Oc1ccc(P(c2ccc(O)cc2)c2ccc(O)cc2)cc1 [Compound 60],Lifespan %,C. elegans; table of scaffold drawing 35,−2%
COc1ccc(P(=O)(c2ccc(OC)cc2)c2ccc(OC)cc2)cc1 [Compound 63],Lifespan %,C. elegans; table of scaffold drawing 35,0%
O=P(c1ccc(O)cc1)(c1ccc(O)cc1)c1ccc(O)cc1 [Compound 61],Lifespan extension (%),C. elegans,30%
same,Lifespan %,C. elegans; table of scaffold drawing 35,30%
COc1ccc(C(C)(c2ccc(OC)c([N+](=O)[O-])c2)c2ccc(OC)c([N+](=O)[O-])c2)cc1[N+](=O)[O-] [Compound 72],Lifespan %,C. elegans; table of scaffold drawing 36,4%
COc1c(I)cc(C(C)(c2cc(I)c(OC)c(I)c2)c2cc(I)c(OC)c(I)c2)cc1I [Compound 73],Lifespan %,C. elegans; table of scaffold drawing 36,−7%
"Cc1c2oc3c(C)ccc(C(=O)N[C@@H]4C(=O)N[C@H](C(C)C)C(=O)N5CCC[C@H]5C(=O)N(C)CC(=O)N(C)[C@@H](C(C)C)C(=O)O[C@@H]4C)c3nc-2c(C(=O)N[C@@H]2C(=O)N[C@H](C(C)C)C(=O)N3CCC[C@H]3C(=O)N(C)CC(=O)N(C)[C@@H](C(C)C)C(=O)O[C@@H]2C)c(N)c1=O [actinomycin D, reference compound] (I: T[dV]P[Sar][NMeV] / II: T[dV]P[Sar][NMeV]; ester I:1-I:C, II:1-II:C; linker I:N-II:N via Actinocin(9to1))",effect of addition during compound treatment on activation of telomerase expression,telomerase mRNA; added for 3 h during treatment with Compound 68,abolished the activation of telomerase expression
CN1CCN(Cc2cc(C(C)(c3cc(CN4CCN(C)CC4)c(O)c(CN4CCN(C)CC4)c3)c3cc(CN4CCN(C)CC4)c(O)c(CN4CCN(C)CC4)c3)cc(CN3CCN(C)CC3)c2O)CC1 [Compound 78],solubility in ethanol,[1]; ethanol,Soluble
same,solubility in water,[1]; water,very good solubility
same,Lifespan extension (%),C. elegans,36%
same,Lifespan %,C. elegans; table of scaffold drawing 36,36%
COc1ccc(C(c2ccc(-c3c[nH]c4ccccc34)cc2)c2ccc(-c3c[nH]c4ccccc34)cc2)cc1 [Compound 50],Lifes pan ext. %,C. elegans,4%
CC(c1ccc(O)cc1)(c1ccc(O)cc1)c1ccc(O)cc1 [Compound 1],Lifes pan ext. %,C. elegans,30%
COc1ccc(P(c2ccc(OC)cc2)c2ccc(OC)cc2)cc1 [Compound 62],Lifespan extension (%),C. elegans,29%
same,Lifespan %,C. elegans; table of scaffold drawing 35,29%
COc1c(Br)cc(C(C)(c2cc(Br)c(OC)c(Br)c2)c2cc(Br)c(OC)c(Br)c2)cc1Br [Compound 70],Lifespan %,C. elegans; table of scaffold drawing 36,41%
Brc1ccc(N(c2ccc(Br)cc2)c2ccc(Br)cc2)cc1 [Compound 66],Lifespan %,C. elegans; table of scaffold drawing 35,19%
CC(c1ccc(O)cc1)(c1ccc(O)cc1)c1ccc(-c2ccncc2)cc1 [Compound 53],Lifes pan ext. %,C. elegans,13%
COc1ccc(C(C)(c2ccc(-c3cccc4ccccc34)cc2)c2ccc(C3c4ccccc4-c4ccccc43)cc2)cc1 (centres unmarked) [Compound 31],Lifes pan ext. %,C. elegans,23%
"CC(c1cc(Br)c(O)c(Br)c1)(c1cc(Br)c(O)c(Br)c1)c1cc(Br)c(O)c(Br)c1 [Compound 68, 1,1,1-tris(4-hydroxy-3,5-dibromo-phenyl)-ethane]",enhancement of telomerase activity in RPE cells,telomerase [2],30 fold
same,time of peak telomerase activation,telomerase protein,1 to 3 h
same,telomerase protein level,"telomerase protein; 3-24 h, western blot",increased telomerase protein level
same,level of telomerase compared to vehicle-treated cells after 24 h,telomerase protein; 24 h,only slightly higher
same,"level of telomerase full-length and splice variant mRNA, fold of control","telomerase mRNA; single dose of 1 mM, 1-24 h",up to 4.5 fold
same,embryo development after CPT plus compound,embryos; CPT 5 mg/kg then compound 6 mg/kg,developed normally
same,staining of telomerase in the endometrial tissue (immunohistochemistry),telomerase [3],significant increase
same,degradation of the endometrial epithelial layer,telomerase [3]; female rats in diestrus,prevented the degradation of the endometrial epithelial layer
same,Lifespan extension (%),C. elegans,13%
same,Lifespan %,C. elegans; table of scaffold drawing 36,13%
Cc1ccc(C(C)(c2ccccc2)c2ccccc2)cc1 [Compound 10],Lifes pan ext. %,C. elegans,−1%
CC(c1ccc(O)c([N+](=O)[O-])c1)(c1ccc(O)c([N+](=O)[O-])c1)c1ccc(O)c([N+](=O)[O-])c1 [Compound 71],Lifespan %,C. elegans; table of scaffold drawing 36,8%
c1ccc(P(c2ccccc2)c2ccccc2)cc1 [Compound 64],Lifespan %,C. elegans; table of scaffold drawing 35,19%
CC(c1ccc(O)cc1)(c1ccc(O)cc1)c1ccc(-c2cccnc2)cc1 [Compound 54],Lifes pan ext. %,C. elegans,15%
